Measurements as given in PubChem BioAssay AID2060487 (Molecular Pharmacology Branch, DTP, NCI, 2025).
“And” between values parts separate entries of the source, which are not always exact repeats. Equal values may be shown once.

Tested on: 997537-175-T-J1-PDC complex spheroid viability
Assay: Anticancer human tumor 997537-175-T-J1-PDC patient-derived colon adenocarcinoma cell line growth inhibition [GQUAD]
Conditions: for viability, T/C: stronger effect = lower value
Excerpt: DNA G-quadruplex Stabilizer Agents in Combinations in Complex Spheroids
A high-throughput screen of multi-cell type tumor spheroids was designed to identify active combinations of DNA G-quadruplex stabilizer agents and targeted small molecules. Complex spheroids include a stromal component modeled by human endothelial cells (HUVEC) and fibroblasts modeled by human mesenchymal stem cells (MSCs). The concentration ranges selected for each drug and investigational agent were based upon clinically achievable concentrations if the clinical Cmax of the agent was known.
Compounds. The drugs and investigational agents: pidnarulex (CX-5461; NSC782164), APTO-253 (NSC789042), BRACO-19 (NSC847499), peposertib (NSC802822), ceralasertib (NSC780249), elimusertib (NSC800525), camonsertib (NSC841442), AZD-1390 (NSC803789), olaparib (NSC753686), talazoparib (NSC767125), ART-558 (NSC835418), sotorasib (NSC818433), MRTX-1133 (NSC836407), SN-38 (NSC673596), topotecan (NSC609699), etoposide (NSC141540), doxorubicin (NSC123127), gemcitabine (NSC613327), 5-fluorouracil (NSC19893), paclitaxel (NSC125973), vemurafenib (NSC761431), panobinostat (NSC761190), R-306465 (JNJ-16241199; NSC773264), adavosertib (NSC754352), TP-3654 (NSC805149), carboplatin (NSC241240), KSQ-4279 (NSC840948), and staurosporine (NSC755774) were obtained from the National Cancer Institute (NCI) Developmental Therapeutics Program Chemical Repository (34). The FDA-approved anticancer drug set is available from the NCI Developmental Therapeutics Program. […] The stock solutions were prepared in dimethyl sulfoxide (DMSO, Sigma-Aldrich, St. Louis, MO, cat. D2650) at 800-fold the tested concentration and stored at -70 degrees C prior to their use. All drugs and investigational agents were tested over a range starting from a high concentration at or near the clinical Cmax and decreasing in half-log increments. If the clinical Cmax for an agent had not been determined, the highest concentration tested was 10 microM.
2.3 Cell Culture. All cells were maintained in an incubator at 37 degrees C and 5% CO2 with 95% humidity. The PDC lines were cultured according to standard operating procedures established by the NCI PDMR. All PDCs were thawed and cultured in Matrigel-coated flasks prepared with a working solution of 1X Ham's F-12 nutrient mix, without supplementation (Invitrogen, cat. 11765054), 100 U/mL penicillin-streptomycin (Invitrogen, cat. 15140122), and 2.5% Matrigel (Corning Inc., cat. 354248) for the first three passages. The 857933-349-R-J2-PDC line was cultured in 6C/Colon 1B media, which includes advanced DMEM/F-12 (Thermo Fisher Scientific, cat. 12634028), 10 mM HEPES (Thermo Fisher Scientific, cat. 15630080), 1X GlutaMAX supplement (Thermo Fisher Scientific, cat. 35050061), 0.1 mg/mL primocin (InvivoGen, cat. ant-pm-2), 10% defined fetal bovine serum, heat inactivated (HyClone Laboratories Inc., cat. SH30070.03HI), 50% L-WRN conditioned media (ATCC, cat. CRL-3276), 1.25 mM N-Acetyl-L-cysteine (Sigma-Aldrich, cat. A9165), 10 mM nicotinamide (Sigma-Aldrich, cat. N0636), 1X B-27 supplement (Thermo Fisher Scientific, cat. 17504044), 1X N-2 supplement (Thermo Fisher Scientific, cat. 17502048), 10 microM Y-27632 dihydrochloride (Tocris Bioscience, cat. 1254), and 50 ng/mL human EGF recombinant protein (Thermo Fisher Scientific, cat. PHG0311). The 485176-168-R4-J1-PDC line was cultured in Panc media, which includes all 6C/Colon 1B media components plus 100 ng/mL human FGF-10 (Thermo Fisher Scientific, cat. 100-26), 500 nM SB-431542 (Selleckchem, cat. S1067), and gastrin (Tocris, cat. 3006).
[…]
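Also: spheroids exposed to the agents for 7 days.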
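For viability, T/C in this document: 100% = DMSO vehicle control viability.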

Structure (SMILES): CCCS(=O)(=O)Nc1ccc(F)c(C(=O)c2c[nH]c3ncc(-c4ccc(Cl)cc4)cc23)c1F + Cc1cnc(CNC(=O)c2c(=O)c3ccc(N4CCCN(C)CC4)nc3n3c2sc2ccccc23)cn1
- IC50 (curve of first compound, second compound 0.0316 µM): 1900 nM
- IC50 (curve of first compound, second compound 0.1 µM): 1760 nM
- IC50 (curve of first compound, second compound 0.316 µM): 778 nM
- IC50 (curve of first compound, second compound 1 µM): 739 nM
- IC50 (curve of first compound, second compound 3.16 µM): 1890 nM
- IC50 (curve of first compound, second compound 10 µM): 1460 nM
- viability, T/C (second compound 0.0316 µM, first compound 0.0316 µM): 77.7%
- viability, T/C (second compound 0.0316 µM, first compound 0.1 µM): 50.8%
- viability, T/C (second compound 0.0316 µM, first compound 0.316 µM): 67.3%
- viability, T/C (second compound 0.0316 µM, first compound 1 µM): 44.8%
- viability, T/C (second compound 0.0316 µM, first compound 3.16 µM): 56.2%
- viability, T/C (second compound 0.0316 µM, first compound 10 µM): 22.2%
- viability, T/C (second compound 0.1 µM, first compound 0.0316 µM): 73.8%
- viability, T/C (second compound 0.1 µM, first compound 0.1 µM): 64.7%
- viability, T/C (second compound 0.1 µM, first compound 0.316 µM): 76.1%
- viability, T/C (second compound 0.1 µM, first compound 1 µM): 40.8%
- viability, T/C (second compound 0.1 µM, first compound 3.16 µM): 53.1%
- viability, T/C (second compound 0.1 µM, first compound 10 µM): 21.6%
- viability, T/C (second compound 0.316 µM, first compound 0.0316 µM): 93.5%
- viability, T/C (second compound 0.316 µM, first compound 0.1 µM): 56.2%
- viability, T/C (second compound 0.316 µM, first compound 0.316 µM): 60%
- viability, T/C (second compound 0.316 µM, first compound 1 µM): 45.7%
- viability, T/C (second compound 0.316 µM, first compound 3.16 µM): 55.2%
- viability, T/C (second compound 0.316 µM, first compound 10 µM): 21.8%
- viability, T/C (second compound 1 µM, first compound 0.0316 µM): 84.3%
- viability, T/C (second compound 1 µM, first compound 0.1 µM): 62.7%
- viability, T/C (second compound 1 µM, first compound 0.316 µM): 48.4%
- viability, T/C (second compound 1 µM, first compound 1 µM): 56.3%
- viability, T/C (second compound 1 µM, first compound 3.16 µM): 48.2%
- viability, T/C (second compound 1 µM, first compound 10 µM): 27.7%
- viability, T/C (second compound 3.16 µM, first compound 0.0316 µM): 82.7%
- viability, T/C (second compound 3.16 µM, first compound 0.1 µM): 58.6%
- viability, T/C (second compound 3.16 µM, first compound 0.316 µM): 62.2%
- viability, T/C (second compound 3.16 µM, first compound 1 µM): 64.7%
- viability, T/C (second compound 3.16 µM, first compound 3.16 µM): 42.8%
- viability, T/C (second compound 3.16 µM, first compound 10 µM): 26.1%
- viability, T/C (second compound 10 µM, first compound 0.0316 µM): 83.6%
- viability, T/C (second compound 10 µM, first compound 0.1 µM): 74.2%
- viability, T/C (second compound 10 µM, first compound 0.316 µM): 68.8%
- viability, T/C (second compound 10 µM, first compound 1 µM): 44%
- viability, T/C (second compound 10 µM, first compound 3.16 µM): 51.5%
- viability, T/C (second compound 10 µM, first compound 10 µM): 26.9%

Structure (SMILES): C#Cc1c(F)ccc2cc(O)cc(-c3ncc4c(N5CC6CCC(C5)N6)nc(OCC56CCCN5CC(F)C6)nc4c3F)c12 (stereo not given)
- viability, T/C (compound 0.0316 µM): 89% and 91.8% and 98.1%
- viability, T/C (compound 0.1 µM): 89.1% and 92.2% and 103%
- viability, T/C (compound 0.316 µM): 104% and 94.8% and 102%
- viability, T/C (compound 1 µM): 99.4% and 67.4% and 107%
- viability, T/C (compound 3.16 µM): 88.9% and 38.7% and 91.8%
- viability, T/C (compound 10 µM): 106% and 35.1% and 92.4%
- IC50 (curve of compound): > 10000 nM and 1940 nM

Structure (SMILES): CC[C@@]1(O)C(=O)OCc2c1cc1n(c2=O)Cc2cc3c(CN(C)C)c(O)ccc3nc2-1
- viability, T/C (compound 0.000999 µM): 111% (2×) and 97.1%
- viability, T/C (compound 0.00316 µM): 69.8% and 102% and 104%
- viability, T/C (compound 0.00999 µM): 90.1% and 96.7% and 105%
- viability, T/C (compound 0.0316 µM): 80.1% and 87.1% and 83.8%
- viability, T/C (compound 0.0999 µM): 71.2% and 79.7% and 72.6%
- viability, T/C (compound 0.316 µM): 44.4% and 62.8% and 50.7%
- IC50 (curve of compound): 276 nM and > 316 nM

Structure (SMILES): C=CCn1c(=O)c2cnc(Nc3ccc(N4CCN(C)CC4)cc3)nc2n1-c1cccc(C(C)(C)O)n1
- viability, T/C (compound 0.0316 µM): 95.7% and 89.4% and 112%
- viability, T/C (compound 0.1 µM): 75.6% and 101% and 92.2%
- viability, T/C (compound 0.316 µM): 81.8% and 88.3% and 92.2%
- viability, T/C (compound 1 µM): 80.2% and 84.5% and 79.4%
- viability, T/C (compound 3.16 µM): 73.2% and 44.9% and 49.3%
- viability, T/C (compound 10 µM): 28.9% and 30.8% and 24.2%
- IC50 (curve of compound): 5750 nM and 2730 nM and 3530 nM

Structure (SMILES): CC(C)(O)C1CCC(Nc2ccc3ncc(-c4cccc(C(F)(F)F)c4)n3n2)CC1 (stereo not given)
- viability, T/C (compound 0.0316 µM): 106% and 96.5% and 115%
- viability, T/C (compound 0.1 µM): 111% and 78.3% and 65.2%
- viability, T/C (compound 0.316 µM): 114% and 96.7% and 109%
- viability, T/C (compound 1 µM): 101% and 61.5% and 68.3%
- viability, T/C (compound 3.16 µM): 98.6% and 24.1% and 40.3%
- viability, T/C (compound 10 µM): 96.8% and 28.7% and 36.9%
- IC50 (curve of compound): > 10000 nM and 1460 nM and 2030 nM
